Laboratory results as given in PMC9933482 (ACS Omega, 2023).
Values after ≈ are worked out from the molar mass of the structure shown. “Also recorded” adds a separate entry of the source.

Key:
[1] = tested on: human lung fibroblast cell line WI38; assay: MTT cell viability, normal lung fibroblast WI38; assay type: cell-based; conditions: WI-38, read-out: IC50 in μg/mL WI38
[2] = target: recombinant human carbonic anhydrase XII (hCAXII) (Homo sapiens, UniProt O43570); assay: hCAXII enzyme inhibition assay; assay type: biochemical
Chain of recombinant human carbonic anhydrase XII (hCAXII) (O43570 25-291): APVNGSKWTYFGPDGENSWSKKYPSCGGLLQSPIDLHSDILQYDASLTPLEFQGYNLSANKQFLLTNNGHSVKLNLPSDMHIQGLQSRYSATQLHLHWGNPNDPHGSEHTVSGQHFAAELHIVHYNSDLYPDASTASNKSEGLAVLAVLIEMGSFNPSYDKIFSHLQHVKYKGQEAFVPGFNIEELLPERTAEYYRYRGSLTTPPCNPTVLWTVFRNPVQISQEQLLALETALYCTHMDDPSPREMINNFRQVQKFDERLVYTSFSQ

[3] = target: human carbonic anhydrase IX (hCAIX) (Homo sapiens, UniProt Q16790); assay: biochemical
[4] = tested on: HePG-2 cell line; assay: MTT cytotoxicity assay, HePG-2; assay type: cell-based, human; conditions: for IC50: Homo sapiens, HepG2, 24 h, read-out: IC50 in μg/mL HePG-2, MTT, 24 h treatment
[5] = tested on: MCF-7 cell line; assay: MTT cytotoxicity assay, MCF-7; assay type: cell-based, human; conditions: for IC50: Homo sapiens, MCF7, 24 h, read-out: IC50 in μg/mL MCF-7, MTT, 24 h treatment

| IC50 [2] [µM] | IC50 [3] [µM] | Structure (SMILES) | IC50 [1] [µg/mL] | anticancer/cytotoxic activity in words, HePG-2 [4] | IC50 [4] [µg/mL] | IC50 in μg/mL HePG-2 ([4]; MTT, 24 h treatment) [µg/mL] | anticancer/cytotoxic activity in words, MCF-7 [5] | IC50 [5] [µg/mL] | IC50 in μg/mL MCF-7 ([5]; MTT, 24 h treatment) [µg/mL] |
| --- | --- | --- | --- | --- | --- | --- | --- | --- | --- |
| 0.556 ± 0.016 | 0.349 ± 0.011 | O=C1NC(=S)C(=Cc2cn(-c3ccccc3)nc2-c2ccc(Br)cc2)S1 [compound 3e, 5-[(3-(4-Bromophenyl)-1-phenyl-1H-pyrazol-4-yl)methylene]-4-thioxo-2-thiazolidinone] | 41.5 ± 2.9 (≈ 93.8 µM) | most potent cytotoxic agent in this series; also recorded: strong cytotoxic activity | 7.83 ± 1.5 (≈ 17.7 µM) | 10.66 ± 1.0 (≈ 24.1 µM) | most potent cytotoxic agent in this series; also recorded: strong anticancer activity | 11.2 ± 1.5 (≈ 25.2 µM) | – |
| 1.05 ± 0.057 | 0.928 ± 0.045 | CCOC(=O)C1CSc2[nH]c(=O)sc2C1c1cn(-c2ccccc2)nc1-c1ccccc1 (centres unmarked) [compound 7f, Ethyl 7-(1,3-Diphenyl-1H-pyrazol-4-yl)-2-oxo-3,5,6,7-tetrahydro-2H-thiopyrano[2,3-d]thiazole-6-carboxylate] | 44.5 ± 4.5 (≈ 96 µM) | moderate anticancer activity | 13.4 ± 1.2 (≈ 28.8 µM) | – | moderate anticancer activity | 15.9 ± 2.3 (≈ 34.3 µM) | – |
| 0.409 ± 0.022 | 0.133 ± 0.006 | CCOC(=O)C1CSc2[nH]c(=O)sc2C1c1cn(-c2ccccc2)nc1-c1ccc(OC)cc1 (centres unmarked) [compound 7h, Ethyl 7-(3-(4-Methoxyphenyl)-1-phenyl-1H-pyrazol-4-yl)-2-oxo-3,5,6,7-tetrahydro-2H-thiopyrano[2,3-d]thiazole-6-carboxylate] | 25.3 ± 2.2 (≈ 51.3 µM) | strong cytotoxicity | 12.2 ± 1.1 (≈ 24.7 µM) | – | strong cytotoxicity | 11.4 ± 1.5 (≈ 23 µM) | – |
| – | – | Cc1ccc(-c2nn(-c3ccccc3)cc2C2c3sc(=O)[nH]c3SCC2C#N)cc1 (centres unmarked) [compound 7b, 7-(3-(4-Methylphenyl)-1-phenyl-1H-pyrazol-4-yl)-2-oxo-3,5,6,7-tetra-hydro-2H-thiopyrano-[2,3-d]thiazole-6-carbonitrile] | 41.4 ± 1.7 (≈ 96 µM) | – | 30.4 ± 1.1 (≈ 70.7 µM) | – | – | 35 ± 2.3 (≈ 81.4 µM) | – |
| – | – | COc1ccc(-c2nn(-c3ccccc3)cc2C2c3sc(=O)[nH]c3SCC2C#N)cc1 (centres unmarked) [7c, 7-(3-(4-Methoxyphenyl)-1-phenyl-1H-pyrazol-4-yl)-2-oxo-3,5,6,7-tetra-hydro-2H-thiopyrano[2,3-d]thiazole-6-carbonitrile] | 51.9 ± 3.4 (≈ 116 µM) | – | 24.1 ± 2.9 (≈ 54 µM) | – | – | 29.4 ± 1.1 (≈ 65.9 µM) | – |
| – | – | COc1ccc(-c2nn(-c3ccccc3)cc2C2c3sc(=O)[nH]c3SC3C(=O)N(c4ccccc4)C(=O)C32)cc1 (centres unmarked) [compound 5e, 8-(3-(4-Methoxyphenyl)-1-phenyl-1H-pyrazol-4-yl)-6-phenyl-7a,8-dihydro-pyrrolo-[3′,4′:5,6]thiopyrano[2,3-d]thiazole-2,5,7(3H,4aH,6H)-trione] | 51.7 ± 3.7 (≈ 91.2 µM) | – | 30.7 ± 0.3 (≈ 54.2 µM) | – | – | 35.7 ± 72 (≈ 63 µM) | – |
| – | – | O=C1C2Sc3[nH]c(=O)sc3C(c3cn(-c4ccccc4)nc3-c3ccccc3)C2C(=O)N1c1ccccc1 (centres unmarked) [compound 5a, 8-(1,3-Diphenyl-1H-pyrazol-4-yl)-6-phenyl-7a,8-dihydropyrrolo[3′,4′:5,6]-thiopyrano[2,3-d]thiazole-2,5,7(3H,4aH,6H)-trione] | 65.7 ± 1.1 (≈ 122 µM) | – | 38.4 ± 2.1 (≈ 71.6 µM) | – | – | 30.3 ± 0.4 (≈ 56.5 µM) | – |
| – | – | N#CC1CSc2[nH]c(=O)sc2C1c1cn(-c2ccccc2)nc1-c1ccccc1 (centres unmarked) [compound 7a, 7-(1,3-Diphenyl-1H-pyrazol-4-yl)-2-oxo-3,5,6,7-tetrahydro-2H-thiopyrano-[2,3-d]thiazole-6-carbonitrile] | 54.6 ± 3.5 (≈ 131 µM) | – | 26.8 ± 3.3 (≈ 64.4 µM) | – | – | 23.8 ± 1.9 (≈ 57 µM) | – |
| – | – | Cc1ccc(-c2nn(-c3ccccc3)cc2C=C2SC(=O)NC2=S)cc1 [compound 3b, 5-[(3-(4-Methylphenyl)-1-phenyl-1H-pyrazol-4-yl)methylene]-4-thioxo-2-thiazolidinone] | 25.3 ± 2.1 (≈ 66.9 µM) | weak activity | 62.2 ± 3.2 (≈ 165 µM) | – | weak activity | 56.3 ± 3.4 (≈ 149 µM) | – |
| – | – | N#CC1CSc2[nH]c(=O)sc2C1c1cn(-c2ccccc2)nc1-c1ccc(Cl)cc1 (centres unmarked) [compound 7d, 7-(3-(4-Chlorophenyl)-1-phenyl-1H-pyrazol-4-yl)-2-oxo-3,5,6,7-tetra-hydro-2H-thiopyrano[2,3-d]thiazole-6-carbonitrile] | 39.5 ± 1.7 (≈ 87.6 µM) | weak activity | 73 ± 4.3 (≈ 162 µM) | – | weak activity | 67.3 ± 3.7 (≈ 149 µM) | – |
| – | – | O=C1NC(=S)C(=Cc2cn(-c3ccccc3)nc2-c2ccc(Cl)cc2)S1 [compound 3d, 5-[(3-(4-Chlorophenyl)-1-phenyl-1H-pyrazol-4-yl)methylene]-4-thioxo-2-thiazolidinone] | 71.2 ± 4.2 (≈ 179 µM) | moderate activity | 38.2 ± 2.7 (≈ 96 µM) | – | moderate activity | 30.8 ± 2.2 (≈ 77.5 µM) | – |
| 0.604 ± 0.033 | 0.336 ± 0.016 | Cc1ccc(-c2nn(-c3ccccc3)cc2C2c3sc(=O)[nH]c3SC3C(=O)N(c4ccccc4)C(=O)C32)cc1 (centres unmarked) [compound 5d, 8-(3-(4-Methylphenyl)-1-phenyl-1H-pyrazol-4-yl)-6-phenyl-7a,8-dihydro-pyrrolo[3′,4′:5,6]-thiopyrano[2,3-d]thiazole-2,5,7(3H,4aH,6H)-trione] | 49.9 ± 3.4 (≈ 90.5 µM) | good cytotoxic effect | 21.3 ± 1.8 (≈ 38.7 µM) | – | good cytotoxic effect | 25.4 ± 2.1 (≈ 46.1 µM) | 25.95 ± 2.8 (≈ 47.1 µM) |
| 0.566 ± 0.031 | 0.39 ± 0.019 | CCOC(=O)C1CSc2[nH]c(=O)sc2C1c1cn(-c2ccccc2)nc1-c1ccc(C)cc1 (centres unmarked) [compound 7g, Ethyl 7-(3-(4-Methylphenyl)-1-phenyl-1H-pyrazol-4-yl)-2-oxo-3,5,6,7-tetrahydro-2H-thiopyrano[2,3-d]thiazole-6-carboxylate] | 30.3 ± 1.7 (≈ 63.5 µM) | strong cytotoxicity | 11.9 ± 2.7 (≈ 24.9 µM) | – | strong cytotoxicity | 12.3 ± 2.4 (≈ 25.8 µM) | – |
| 0.589 ± 0.03 | 0.239 ± 0.03 | CCOC(=O)C1CSc2[nH]c(=O)sc2C1c1cn(-c2ccccc2)nc1-c1ccc(Br)cc1 (centres unmarked) [compound 7j, Ethyl 7-(3-(4-Bromophenyl)-1-phenyl-1H-pyrazol-4-yl)-2-oxo-3,5,6,7-tetra-hydro-2H-thiopyrano[2,3-d]thiazole-6-carboxylate] | 33.8 ± 2.5 (≈ 62.2 µM) | strong cytotoxicity | 10.3 ± 4.8 (≈ 18.9 µM) | – | strong cytotoxicity | 11.8 ± 4 (≈ 21.8 µM) | – |
| – | – | COc1cccc2c1C(=O)c1c(O)c3c(c(O)c1C2=O)C[C@@](O)(C(=O)CO)C[C@@H]3O[C@H]1C[C@H](N)[C@H](O)[C@H](C)O1 [doxorubicin, reference compound] | 8.87 ± 0.6 (≈ 16.3 µM) | – | – | – | – | – | – |
| – | – | O=C1C2Sc3[nH]c(=O)sc3C(c3cn(-c4ccccc4)nc3-c3ccc(Cl)cc3)C2C(=O)N1c1ccccc1 (centres unmarked) [compound 5f, 8-(3-(4-Chlorophenyl)-1-phenyl-1H-pyrazol-4-yl)-6-phenyl-7a,8-dihydro-pyrrolo[3′,4′:5,6]-thiopyrano[2,3-d]thiazole-2,5,7(3H,4aH,6H)-trione] | 43 ± 3.1 (≈ 75.3 µM) | almost moderate activity | 29 ± 2.1 (≈ 50.8 µM) | – | almost moderate activity | 25.4 ± 2.1 (≈ 44.5 µM) | – |
| – | – | O=C1C2Sc3[nH]c(=O)sc3C(c3cn(-c4ccccc4)nc3-c3ccc(Br)cc3)C2C(=O)N1c1ccccc1 (centres unmarked) [compound 5g, 8-(3-(4-Bromophenyl)-1-phenyl-1H-pyrazol-4-yl)-6-phenyl-7a,8-dihydro-pyrrolo[3′,4′:5,6]-thiopyrano[2,3-d]thiazole-2,5,7(3H,4aH,6H)-trione] | 24.9 ± 2 (≈ 40.4 µM) | weakly active | 45 ± 3 (≈ 73 µM) | – | weakly active | 42.9 ± 2.7 (≈ 69.7 µM) | – |
| – | – | O=C1NC(=S)C(=Cc2cn(-c3ccccc3)nc2-c2ccccc2)S1 [compound 3a, 5-[(1,3-Diphenyl-1H-pyrazol-4-yl)methylene]-4-thioxo-2-thiazolidinone] | 28.2 ± 2.3 (≈ 77.6 µM) | weak activity | 65.8 ± 3.3 (≈ 181 µM) | – | weak activity | 52.1 ± 3.1 (≈ 143 µM) | – |
| – | – | COc1ccc(-c2nn(-c3ccccc3)cc2C=C2SC(=O)NC2=S)cc1 [compound 3c, 5-[(3-(4-Methoxyphenyl)-1-phenyl-1H-pyrazol-4-yl)methylene]-4-thioxo-2-thiazolidinone] | 64.5 ± 3.8 (≈ 164 µM) | moderate activity | 31.2 ± 2.6 (≈ 79.3 µM) | – | moderate activity | 37.6 ± 3.4 (≈ 95.5 µM) | – |
